Assay results as given in US9458217B2, “Methods of managing graft versus host disease” (EMORY UNIVERSITY, priority 2013, dated 2016).
Entries after “also recorded” stand apart in the source; their conditions may differ. Where no end group is shown, it is not given here.

Assays:
[1] = system: cross-dressed CD11c+ APC; test: Drug inhibition of trogocytosis in MLR (frequency of cross-dressed CD11c+ APC by flow cytometry); type: cell-based, mice
Protocol: The frequency of cross-dressed CD11c+ APC on day 6 of MLR was assessed by flow cytometry.
Whether drugs can inhibit cross-dressed APCs from facilitating antigen presentation to donor T cells and prevent GVHD following allo-HSCT was tested. Cross-dressed donor CD11c+ APCs were generated in vivo following allo-HSCT (FIG. 1).

[2] = system: T cells; test: T cell proliferation in primary MLR with drug-treated bone marrow; type: cell-based, mice
[3] = system: CD11c+ cells; test: Cell viability / direct cytotoxicity on drug exposure in vitro; conditions: at the doses that inhibit trogocytosis (FIG. 3)

Row | Compound | exchange of plasma membrane fragments (trogocytosis; frequency of cross-dressed CD11c+ APC) ([1]; in vitro generated cross-dressed CD11c+ cells, day 6 of MLR, flow cytometry (FIG. 3)) | semi-direct presentation of allo-antigen to T cells ([1]; summary statement of the data) | T cell proliferation in primary MLR ([2]; bone marrow treated with 0.05 uM, compared to non-drug treated bone marrow) | allo-reactivity ([2]; summary statement of the data) | cell viability / direct cytotoxic effects [3] | cell viability / direct cytotoxic effects ([3]; listed as VIP antagonist)
1 | CC(=O)O[C@H]1C(=O)[C@@]2(C)[C@H]([C@H](OC(=O)c3ccccc3)[C@]3(O)C[C@H](OC(=O)[C@H](O)[C@@H](NC(=O)c4ccccc4)c4ccccc4)C(C)=C1C3(C)C)[C@]1(OC(C)=O)CO[C@@H]1C[C@@H]2O [paclitaxel] | inhibited | reduce semi-direct presentation | significantly decreased | reduce allo-reactivity | without direct cytotoxic effects; also recorded: preserving cell viability | 
2 | KPRRPYTDNYTRLRKQMAVKKYLNSILN-NH2 [VIPHyb] |  |  |  |  | without direct cytotoxic effects | preserving cell viability
